Source: US6784201B2, “Benzothiepines having activity as inhibitors of ileal bile acid transport and taurocholate uptake” (G.D. Searle & Company, priority 1994, dated 2004)

Target: T1, human IBAT (Homo sapiens, UniProt Q12908)
T1 construct: expressed in transfected cells; host or cells: Baby hamster kidney (BHK) cells, clone H14
T1 sequence (Q12908 1-348): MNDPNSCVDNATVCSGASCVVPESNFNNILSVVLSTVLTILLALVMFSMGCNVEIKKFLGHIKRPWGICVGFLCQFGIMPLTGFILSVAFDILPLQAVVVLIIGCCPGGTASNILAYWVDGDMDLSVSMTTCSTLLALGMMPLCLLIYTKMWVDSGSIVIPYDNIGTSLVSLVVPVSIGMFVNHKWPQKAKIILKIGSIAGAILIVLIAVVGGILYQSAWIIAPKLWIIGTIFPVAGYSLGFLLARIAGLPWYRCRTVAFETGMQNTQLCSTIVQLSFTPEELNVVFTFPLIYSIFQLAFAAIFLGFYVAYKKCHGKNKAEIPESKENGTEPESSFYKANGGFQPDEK
Test: In vitro assay of IBAT-mediated uptake of [14C]-taurocholate (TC) in H14 cells
Type: cell-based
Conditions: read-out: Human TC IC50
Summary of the method: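 BHK cells stably expressing human IBAT (H14) were incubated 2 h at 37° C with compound and 3 μM final [14C]-taurocholate in DMEM (4.5 g/L glucose) plus 0.2% fatty acid-free BSA. After cold PBS washes, cell-associated radioactivity was measured by scintillation counting.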

SMILES | IC50 [nM]
CCCCC1(CCCC)CS(=O)(=O)c2ccc(N(C)C)cc2C(c2cccc(OCCOCCOCC[n+]3cc4ccccn4c3)c2)C1O (stereo not shown) [Example 1030] | 2
CCCCC1(CCCC)CS(=O)(=O)c2ccc(N(C)C)cc2C(c2ccc(OCCCCOCCCC[N+](CC)(CC)CC)c(F)c2)C1O (stereo not shown) [Example 1031] | 2
CCCCC1(CCCC)CS(=O)(=O)c2ccc(N(C)C)cc2C(c2ccc(OCCOCCOCC[N+]3(C)CCN(C)CC3)c(F)c2)C1O (stereo not shown) [Example 1033] | 2
CCCCC1(CCCC)CS(=O)(=O)c2ccc(N(C)C)cc2C(c2cccc(OCCOCCOCC[n+]3cccc4ccc5ccccc5c43)c2)C1O (stereo not shown) [Example 1034] | 2
CCCCC1(CCCC)CS(=O)(=O)c2ccc(N(C)C)cc2C(c2cccc(OCCOCCOCC[N+](C)(C)CCN(CC)P(C)(=O)c3ccccc3)c2)C1O (stereo not shown) [Example 1035] | 2
CCCCC1(CCCC)CS(=O)(=O)c2ccc(N(C)C)cc2C(c2ccc(OCCCCOCCCC[N+](CC)(CC)CC)c(F)c2)C1O (stereo not shown) [Example 1040] | 3
CCCCC1(CCCC)CS(=O)(=O)c2ccc(N(C)C)cc2C(c2cccc(OCCOCCOCC[n+]3ccnc4ccccc43)c2)C1O (stereo not shown) [Example 1041] | 3
CCCCC1(CCCC)CS(=O)(=O)c2ccc(N(C)C)cc2C(c2ccc(OCCCCCCCC[N+](CC)(CC)CC)c(F)c2)C1O (stereo not shown) [Example 1045] | 3
CCCCC1(CCCC)CS(=O)(=O)c2ccc(N(C)C)cc2C(c2ccc(OCCOCCOCC[N+](CC)(CC)CC)cc2)C1O (stereo not shown) [Example 1048] | 3
CCCCC1(CCCC)CS(=O)(=O)c2ccc(N(C)C)cc2C(c2cccc(OCCOCCOCC[N+]3(C)CCN(P(C)(=O)c4ccccc4)CC3)c2)C1O (stereo not shown) [Example 1050] | 3
CCCCC1(CCCC)CS(=O)(=O)c2ccc(N(C)C)cc2C(c2cccc(OCCOCCOCC[n+]3cc4ccccc4cc3C)c2)C1O (stereo not shown) [Example 1052] | 3
CCCCC1(CCCC)CS(=O)(=O)c2ccc(N(C)C)cc2C(c2cccc(OCCOCCOCC[n+]3ccc4ccccc4c3)c2)C1O (stereo not shown) [Example 1054] | 3
CCCCC1(CCCC)CS(=O)(=O)c2ccc(N(C)C)cc2C(c2ccc(OCCOCCOCC[N+]3(C)CCCN(C)CCN(C)CCCN(C)CC3)cc2)C1O (stereo not shown) [Example 1055] | 3
CCCCC1(CCCC)CS(=O)(=O)c2ccc(N(C)C)cc2C(c2cccc(OCCOCCOCC[n+]3ccc4c(c3)CCCCC4)c2)C1O (stereo not shown) [Example 1056] | 3
CCCCC1(CCCC)CS(=O)(=O)c2ccc(N(C)C)cc2C(c2cccc(OCCOCCOCC[n+]3ccncc3)c2)C1O (stereo not shown) [Example 1057] | 3
CCCCC1(CCCC)CS(=O)(=O)c2ccc(N(C)C)cc2C(c2cccc(OCCOCCOCC[N+](CC)(CC)CCN(C)C(=O)c3ccccc3)c2)C1O (stereo not shown) [Example 1058] | 3
CCCCC1(CCCC)CS(=O)(=O)c2ccc(N(C)C)cc2C(c2ccc(OCCOCC[N+]3(CC)CCCCC3)c(F)c2)C1O (stereo not shown) [Example 1059] | 3
CCCCC1(CC)CS(=O)(=O)c2ccc(NC)cc2C(c2ccc(OC)c(F)c2)C1O (stereo not shown) [Example 1060] | 3.6
CCCCC1(CCCC)CS(=O)(=O)c2ccc(NC)cc2C(c2cccc(OCCOCCOCC[n+]3cc4ccccc4cn3)c2)C1O (stereo not shown) [Example 1061] | 4

SMILES | IC50 [nM]
CCCCC1(CCCC)CS(=O)(=O)c2ccc(NC)cc2C(c2cccc(OCCOCCOCC[N+](C)(C)CCN(C)S(=O)(=O)c3ccccc3)c2)C1O (stereo not shown) [Example 1062] | 4
C=COCC[N+](CC)(CC)CCOCCOCCOc1cccc(C2c3cc(NC)ccc3S(=O)(=O)CC(CCCC)(CCCC)C2O)c1 (stereo not shown) [Example 1063] | 4
CCCCC1(CCCC)CS(=O)(=O)c2ccc(NC)cc2C(c2cccc(OCCOCCOCC[n+]3ccccc3CCN3CCCCC3)c2)C1O (stereo not shown) [Example 1064] | 4
CCCCC1(CCCC)CS(=O)(=O)c2ccc(N(C)C)cc2C(c2cccc(OCCOCCOCC[N+](CCOCCOC)(CCOCCOC)CCOCCOC)c2)C1O (stereo not shown) [Example 1065] | 4
CCCCC1(CCCC)CS(=O)(=O)c2ccc(N(C)C)cc2C(c2cccc(OCCOCCOCC[n+]3cc4ccccc4c4ccccc43)c2)C1O (stereo not shown) [Example 1066] | 4
CCCCC1(CCCC)CS(=O)(=O)c2ccc(N(C)C)cc2C(c2cccc(OCCOCCOCC[n+]3ccccc3)c2)C1O (stereo not shown) [Example 1068] | 4
CCCCC1(CCCC)CS(=O)(=O)c2ccc(N(C)C)cc2C(c2ccc(OCCOCC[n+]3ccn(CC)c3)c(F)c2)C1O (stereo not shown) [Example 1070] | 4
CCCCC1(CCCC)CS(=O)(=O)c2ccc(N(C)C)cc2C(c2cccc(OCCOCCOCC[N+](CC)(CC)CCN(C)P(C)(=O)c3ccccc3)c2)C1O (stereo not shown) [Example 1071] | 4
CCCCC1(CCCC)CS(=O)(=O)c2ccc(N(C)C)cc2C(c2cccc(OCCOCCOCC[n+]3ccc(CO)cc3)c2)C1O (stereo not shown) [Example 1072] | 4
CCCCC1(CCCC)CS(=O)(=O)c2ccc(N(C)C)cc2C(c2ccc(OCCOCC[N+]34CCN(CC3)CC4)c(F)c2)C1O (stereo not shown) [Example 1073] | 4
CCCCC1(CC)CS(=O)(=O)c2ccc(N(C)C)cc2C(c2cccc(OCCOCCOCC[N+](C)(C)CCCCCC[N+](C)(C)CCOCCOCCOc3cccc(C4c5cc(N(C)C)ccc5S(=O)(=O)CC(CC)(CCCC)C4O)c3)c2)C1O (stereo not shown) [Example 1079] | 5
CCCCC1(CCCC)CS(=O)(=O)c2ccc(N(C)C)cc2C(c2cccc(OCCOCCOCC[N+](CC)(CC)CCN(C)S(=O)(=O)c3ccccc3)c2)C1O (stereo not shown) [Example 1080] | 5
CCCCC1(CCCC)CS(=O)(=O)c2ccc(N(C)C)cc2C(c2cccc(OCCOCCOCC[N+](CC)(CC)CC(C)=O)c2)C1O (stereo not shown) [Example 1081] | 5
CCCCC1(CCCC)CS(=O)(=O)c2ccc(N(C)C)cc2C(c2cccc(OCCOCCOCC[n+]3ccccc3C)c2)C1O (stereo not shown) [Example 1083] | 5
CCCCC1(CCCC)CS(=O)(=O)c2ccc(N(C)C)cc2C(c2cccc(OCCOCCOCC[n+]3ccc(CC)cc3)c2)C1O (stereo not shown) [Example 1084] | 5
CCCCC1(CCCC)CS(=O)(=O)c2ccc(N(C)C)cc2C(c2cccc(OCCOCCOCC[N+](C)(C)CCN(CC)C(=O)c3ccccc3)c2)C1O (stereo not shown) [Example 1086] | 5
CCCCC1(CCCC)CS(=O)(=O)c2ccc(N(C)C)cc2C(c2cccc(OCCOCCOCC[n+]3cccc4ccccc43)c2)C1O (stereo not shown) [Example 1090] | 6
CCCCC1(CCCC)CS(=O)(=O)c2ccc(N(C)C)cc2C(c2cccc(OCCOCCOCC[N+](C)(C3CCCCC3)C3CCCCC3)c2)C1O (stereo not shown) [Example 1091] | 6
CCCCC1(CCCC)CS(=O)(=O)c2ccc(N(C)C)cc2C(c2cccc(OCCOCCOCC[N+](C)(C)c3ccccc3)c2)C1O (stereo not shown) [Example 1092] | 6

The next lines start with the values.

IC50 [nM] | SMILES
2 | CCCCC1(CCCC)CS(=O)(=O)c2ccc(N(C)C)cc2C(c2cccc(OCCCCC[N+](CC)(CC)CC)c2)C1O (stereo not shown) [Example 1032]
2.2 | CCCCC1(CCCC)CS(=O)(=O)c2ccc(N(C)C)cc2C(c2ccc(O)cc2)C1O (stereo not shown) [Example 1037]
2.5 | CCCCC1(CCCC)CS(=O)(=O)c2ccc(N(C)C)cc2C(c2cccc(OCC[N+](C)(C)C)c2)C1O (stereo not shown) [Example 1038]
2.6 | CCCCC1(CCCC)CS(=O)(=O)c2ccc(N(C)C)cc2C(c2ccccc2)C1O (stereo not shown) [Example 1039]
3 | C=CC(=O)Nc1cccc(C2c3cc(N(C)C)ccc3S(=O)(=O)CC(CCCC)(CCCC)C2O)c1 (stereo not shown) [Example 1043]
3 | CCCCC1(CCCC)CS(=O)(=O)c2ccc(N(C)C)cc2C(c2ccc(OCCOCC[N+](CC)(CC)CC)c(F)c2)C1O (stereo not shown) [Example 1044]
3 | CCCCC1(CCCC)CS(=O)(=O)c2ccc(N(C)C)cc2C(c2cccc(N)c2)C1O (stereo not shown) [Example 1046]
3 | CCCCC1(CCCC)CS(=O)(=O)c2ccc(N(C)C)cc2C(c2ccc(OCCOCC[n+]3ccccc3)c(F)c2)C1O (stereo not shown) [Example 1049]
3 | CCCCC1(CCCC)CS(=O)(=O)c2ccc(N(C)C)cc2C(c2ccc(OCc3cc[n+](C)cc3)c(F)c2)C1O (stereo not shown) [Example 1051]
3 | CCCCC1(CCCC)CS(=O)(=O)c2ccc(N(C)C)cc2C(c2ccc(OCCC[n+]3ccc(N(C)C)cc3)c(F)c2)C1O (stereo not shown) [Example 1053]
4 | CCCCC1(CCCC)CS(=O)(=O)c2c(cc(N(C)C)cc2N(C)C)C(c2ccccc2)C1O (stereo not shown) [Example 1069]
4 | CCCCC1(CC)CS(=O)(=O)c2ccc(N(C)C)cc2C(c2ccc(OC)c(F)c2)C1O (stereo not shown) [Example 1074]
4.3 | CCCCC1(CCCC)CS(=O)(=O)c2c(cc(N(C)C)cc2N(C)C)C(c2ccc(F)cc2)C1O (stereo not shown) [Example 1075]
4.5 | CCCCC1(CCCC)CS(=O)(=O)c2ccc(N(C)C)cc2C(c2ccc(OCCOCCOCC[N+](C)(C)C)cc2)C1O (stereo not shown) [Example 1076]
4.5 | CCCCC1(CCCC)CS(=O)(=O)c2ccc(N(C)C)cc2C(c2cccc(CO)c2)C1O (stereo not shown) [Example 1077]
5 | CCCCC1(CCCC)CS(=O)(=O)c2ccc(N(C)C)cc2C(c2ccccn2)C1O (stereo not shown) [Example 1082]
5 | CCCCC1(CCCC)CS(=O)(=O)c2ccc(N(C)C)cc2C(c2ccsc2)C1O (stereo not shown) [Example 1085]
5 | CCCCC1(CCCC)CS(=O)(=O)c2ccc(N(C)C)cc2C(c2cccc(OCC[N+](CC)(CC)CC)c2)C1O (stereo not shown) [Example 1087]
5.5 | CCCCC1(CC)CS(=O)(=O)c2ccc(N(C)C)cc2C(c2ccc3c(c2)OCO3)C1O (stereo not shown) [Example 1088]
5.7 | CCCCC1(CC)CS(=O)(=O)c2ccc(N(C)C)cc2C(c2ccc(OC)cc2)C1O (stereo not shown) [Example 1089]
